This passage reports half-life results from PubChem BioAssay AID1508603 (National Center for Advancing Translational Sciences (NCATS), 2020).

The data set relates to human liver cytosol stability, half-life. The data set can be described thus: NCATS Human Liver Cytosol Stability Profiling. The conditions noted are these: higher = more stable. The procedure:
Assay submitter (PI): Pranav Shah Ph.D.
NIH Center for Advancing Translational Sciences
Over the last few decades, chemists have become skilled at designing compounds that avoid cytochrome P (CYP) 450 mediated metabolism. Typical screening assays are performed in liver microsomal fractions and it is possible to overlook the contribution of cytosolic enzymes until much later in the drug discovery process. Few data exist on cytosolic enzyme-mediated metabolism and no reliable tools are available to chemists to help design away from such liabilities. In this study, we screened 1450 compounds for liver cytosol-mediated metabolic stability and extracted transformation rules that might help medicinal chemists in optimizing compounds with these liabilities. […] Matched molecular pairs analysis was performed in conjunction with qualitative-structure activity relationship modeling to identify chemical structure transformations affecting cytosolic stability. The transformation rules were prospectively validated on the test set. In addition, selected rules were validated on a diverse chemical library and the resulting pairs were experimentally tested to confirm whether the identified transformations could be generalized. The validation results, comprising nearly 250 library compounds and corresponding half-life data, are made publicly available. The datasets were also used to generate in silico classification models, based on different molecular descriptors and machine learning methods, to predict cytosol-mediated liabilities. To the best of our knowledge, this is the first systematic in silico effort to address cytosolic enzyme-mediated liabilities (Shah 2020).
Shah, P., Siramshetty, V.B., Zakharov, A.V. et al. Predicting liver cytosol stability of small molecules. J Cheminform 12, 21 (2020). https://doi.org/10.1186/s13321-020-00426-7
Compounds are classified as unstable (t 1/2 < 30 min) or stable (t 1/2 > 30 min).
1. Shah, P. et al. An Automated High-Throughput Metabolic Stability Assay Using an Integrated High-Resolution Accurate Mass Method and Automated Data Analysis Software. Drug Metab Dispos 44, 1653-1661 (2016). PMID 27417180
With `COc1ccc(C(=O)N2CCCOCCNC(=O)CC2)cc1`, the half-life (as a rule, the time needed for the level to fall by half in the phase considered) is 1.17 h.

For `O=C(c1cccs1)N1CCC(Oc2ccccc2)C1` (stereo not given), the half-life was 0.638 h.

`Cc1ccc(NC(=O)c2nc3sccn3c2-c2cccc(C#N)c2)cc1`: the half-life came out at 0.29 h.

`CC(=O)N1CCC(Cc2ccc(C(=O)NC3CC3)cc2)CC1` yielded a half-life of 1.33 h.

On to `CN1c2cc(C(=O)Nc3ccc(S(N)(=O)=O)cc3)ccc2C(=O)N2CCCCC21` (stereo not given), for which the half-life was > 2 h.

For the compound `CCOCCOC1CCN(C(=O)Nc2ccccc2)CC1`, the half-life was > 2 h.

Consider `O=c1cc(N2CCOCC2)oc2c(-c3cccc(F)c3)nccc12`, for which the half-life was > 2 h.

`COC1CCC12CCN(C(=O)c1ccc(C#N)cc1)CC2` (stereo not given): the half-life stood at 1.32 h.

Turning to `N#Cc1cccc(CN2C[C@@H](CO)[C@H](c3ccccn3)C2)c1`, the half-life was determined as 0.957 h.

`CC(C)(C)c1coc([C@@H]2COCCN2Cc2ccc(C(=O)O)cc2)n1`: the half-life came out at 1.88 h.

`Fc1cccc(-c2noc(-c3nc(-c4ccncc4)no3)n2)c1` displayed a half-life of 0.44 h.

In the case of `N#Cc1cccc(-c2cn3c(n2)N(C(=O)c2ccoc2)CCC3)c1`, the half-life is > 2 h.

As for `O=C(c1ccoc1)N1CCC(Oc2cccc(F)c2)C1` (stereo not given), the half-life came out at 1.18 h.

With `COc1ccccc1CN1CCC2(CC1)CC(O)CCO2` (stereo not given), the half-life is > 2 h.

On to `COc1ccc(CN2CC(Oc3ccc(F)cc3F)C2)cc1`, for which the half-life amounted to 0.605 h.

As to `CN(CC1CCOC1)C(=O)Nc1cccc(F)c1` (stereo not given), the half-life is > 2 h.

For `N#Cc1ccc(C(=O)N2CCCOCCNC(=O)CC2)cc1`, the half-life was > 2 h.

Regarding `CN1CCC(OC2CCN(C(=O)c3cccc(F)c3)CC2)CC1`, the half-life was > 2 h.

In the case of `COc1cccc(-c2c(C(=O)N3CCOCC3)nc3sccn23)c1`, the half-life is > 2 h.

`CN1CCN(C(=O)Cc2cccn2-c2ccc(F)cc2)CC1`: the half-life is > 2 h.

`COc1ccc(CN2CC(N3CCc4ccccc43)C2)cc1` returned a half-life of 1.37 h.

On to `COc1ccc(CN2CCC(N3CCOC3=O)CC2)cc1`, for which the half-life is > 2 h.

For `Cc1ccc(-c2noc([C@@H]3Cc4nc[nH]c4CN3Cc3cccc(C#N)c3)n2)cc1`, the half-life was found to be 1.06 h.

For the compound `COc1cccc(-c2cn3c(n2)N(C(=O)c2ccoc2)CCC3)c1`, the half-life came out at 1.86 h.

`COc1ccc(CN2CCC3(COc4ccccc4C(=O)N3)C2)cc1` (stereo not given) yielded a half-life of 0.578 h.

Turning to `N#Cc1ccc(CN2CCC3(CC2)CC(=O)c2ccccc2O3)cc1`, the half-life is > 2 h.

Consider `O=C(c1ccncc1)N1CCC(Oc2cccc(F)c2)C1` (stereo not given), for which the half-life is > 2 h.

For the compound `Cc1nn2c(c1-c1ccccc1Oc1ccccc1)N(Cc1ccc(C(=O)O)cc1)CCC2`, the half-life is > 2 h.

For the compound `N#Cc1ccc(CN2CC(N3CCc4ccccc43)C2)cc1`, the half-life came out at 1.61 h.

As for `COc1ccc(OC2CN(Cc3ccc(C#N)cc3)C2)cc1`, the half-life is > 2 h.

On to `COc1ccc(CN2CCC3(C2)NC(=O)c2ccccc2O3)cc1` (stereo not given), for which the half-life was > 2 h.

`O=C(c1cccs1)N1CCC(Oc2cccc(F)c2)C1` (stereo not given): the half-life is 0.29 h.

With `CN(CC1CCOC1)C(=O)Nc1ccccc1` (stereo not given), the half-life was > 2 h.

In the case of `CCOc1cc(=O)n2c(c1C(=O)Nc1ccc(S(N)(=O)=O)cc1)CCCC2`, the half-life is > 2 h.

On to `N#Cc1ccc(C(=O)N2CCOC[C@H](Oc3cnccn3)C2)cc1`, for which the half-life is > 2 h.

In the case of `COc1ccc(CN2CC[C@H](c3nnc(C)o3)C2)cc1`, the half-life is > 2 h.

`COc1cncc(Nc2ncc(-c3cccc(F)c3)c3c2OCC3)c1`: the half-life came out at 1.34 h.

As to `O=C(Nc1ncc(-c2cccc(F)c2)c2c1OCC2)c1ccncc1`, the half-life was > 2 h.

In the case of `N#Cc1cccc(-c2cn3c(n2)N(C(=O)c2ccco2)CCC3)c1`, the half-life turned out to be 0.612 h.

In the case of `COc1cccc(-c2c(C(=O)NC3CC3)nc3sccn23)c1`, the half-life was > 2 h.

`COc1ccc(CN2CC(Oc3ccc(OC)cc3)C2)cc1`: the half-life is > 2 h.

Take `O=C(O)c1ccc(CN2CCOC[C@H]2c2ncc(-c3ccc(F)cc3)[nH]2)cc1`: the half-life is > 2 h.

`COc1ccc(C(=O)N2CCC3(CCC3OC)CC2)cc1` (stereo not given) came in with a half-life of 1.17 h.

Turning to `Cc1nn2c(c1-c1ccccc1Oc1ccccc1)N(Cc1cccc(C#N)c1)CCC2`, the half-life was > 2 h.

Regarding `N#Cc1ccc(CN2CCC3(COc4ccccc4C(=O)N3)C2)cc1` (stereo not given), the half-life amounted to 0.64 h.

Take `COc1cccc(CN2CC[C@H](c3nc4ccccc4[nH]3)C2)c1`: the half-life was > 2 h.

For the compound `COCCNC(=O)c1nc2sccn2c1-c1cccc(OC)c1`, the half-life is > 2 h.

Consider `O=C(O)c1ccc(-c2ncc3cnc(-c4cccc(F)c4)cn23)cc1`, for which the half-life was > 2 h.

For `CC1(c2ccccc2)N(Cc2ccccc2)C(=O)OC12CCN(Cc1ccc(C(=O)O)cc1)CC2` (stereo not given), the half-life was > 2 h.

For `O=C1COCCN1c1cc(-c2cccc(F)c2)cn2cncc12`, the half-life is > 2 h.

For the compound `COc1cccc(-c2cn3c(n2)N(C(=O)c2cccs2)CCC3)c1`, the half-life is > 2 h.

On to `COc1ccc(CN2CCC3(CC2)CC(=O)c2ccccc2O3)cc1`, for which the half-life is > 2 h.

Compound `O=c1c2nc(Nc3cccc(F)c3)ccc2ncn1-c1cccnc1` gave a half-life of 1.61 h.

As for `COc1cccc(-c2c(C(=O)N3CCCCC3)nc3sccn23)c1`, the half-life stood at 1.9 h.

For `COc1ccc(CN2CCC(N3CCNC3=O)CC2)cc1`, the half-life was > 2 h.

With `COc1cccc(CN2CCOC[C@H](O)C2)c1`, the half-life is 0.47 h.

Consider `CN(C)[C@@H]1CN(C(=O)c2ccc(C#N)cc2)C[C@H]1CO`, for which the half-life is > 2 h.

`Cc1ccccc1-c1[nH]nc2ncc(-c3cccc(F)c3)nc12` came in with a half-life of 0.817 h.

Consider `N#Cc1cccc(CN2CC(COc3ccccc3)C3(C2)CN(c2ccccc2)C3)c1` (stereo not given), for which the half-life was 0.693 h.

As to `N#Cc1cccc(-c2cn3c(n2)N(C(=O)c2cccs2)CCC3)c1`, the half-life was > 2 h.

Take `COc1ccc(CN2CC(Oc3ccc(F)c(C)c3)C2)cc1`: the half-life is 0.36 h.

As to `N#Cc1ccc(CN2CC(Oc3ccc(F)c(F)c3)C2)cc1`, the half-life turned out to be 1.19 h.

`COc1cccc(-c2c(C(=O)Nc3ccc(C)cc3)nc3sccn23)c1` came in with a half-life of 1.55 h.

For `COc1ccc(CN2CC[C@@](C)(O)[C@H](N3CCCC3)C2)cc1`, the half-life was > 2 h.

With `N#Cc1cccc(CN2CC[C@H](c3nc4ccccc4[nH]3)C2)c1`, the half-life is > 2 h.

For the compound `CNC(=O)[C@@H]1CN(C(=O)c2cccc(OC)c2)C[C@H]1COC`, the half-life is > 2 h.

For the compound `Cc1noc(-c2cn(C3CCN(C(=O)c4ccccc4)C3)nn2)n1` (stereo not given), the half-life is > 2 h.

Compound `N#Cc1ccc(CN2C[C@@H](CO)[C@H](c3ccncc3)C2)cc1` showed a half-life of 1.78 h.

For `O=C(O)c1ccc(-c2ccc(N3CCCCCC3)nc2)cc1`, the half-life was > 2 h.

With `CC(C)(C)c1coc([C@@H]2COCCN2Cc2cccc(C#N)c2)n1`, the half-life came out at 0.943 h.

`COC(=O)[C@@H]1Cc2ncn(C)c2CN1C(=O)c1ccc(C#N)cc1`: the half-life is > 2 h.

Consider `CC(C)CN1C(=O)c2cccn2CC1C(=O)N1CCN(C)CC1` (stereo not given), for which the half-life stood at 1.79 h.

Take `CN1CCC(OC2CCN(C(=O)c3ccccc3)CC2)CC1`: the half-life was > 2 h.

`CNC(=O)[C@@H]1CN(C(=O)c2cccc(C#N)c2)C[C@H]1COC` registered a half-life of 1.44 h.

As to `CCN1CCN(C(=O)c2nc3sccn3c2-c2cccc(OC)c2)CC1`, the half-life is > 2 h.

Compound `O=C(c1ccsc1)N1CCC(Oc2cccc(F)c2)C1` (stereo not given) displayed a half-life of 1.38 h.

Regarding `N#Cc1cccc(-c2c(C(=O)N3CCOCC3)nc3sccn23)c1`, the half-life is > 2 h.

In turn, `Cc1cc2cc(-c3c(C)noc3C)nc(Nc3ccccc3)c2o1` yielded a half-life of 0.593 h.

Regarding `Cc1ccsc1-c1[nH]nc2ncc(-c3ccccc3)nc12`, the half-life was determined as 0.308 h.

Consider `O=C(O)c1ccc2c(c1)n(Cc1cccc(F)c1)c(=O)c1ccnn12`, for which the half-life is > 2 h.

With `O=c1c2nc(Nc3cccc(F)c3)ccc2ncn1-c1ccccc1`, the half-life stood at 1.57 h.

In the case of `O=C(N1CCN([S+](=O)([O-])c2ccccc2)CC1)N1CC2CC(C1)[C@H]1CCCC(=O)N1C2` (stereo not given in full), the half-life is > 2 h.

In the case of `CN(Cc1cccc(F)c1)C1CCOc2ccccc21` (stereo not given), the half-life is 0.143 h.

Regarding `COCCNC(=O)c1nc2sccn2c1-c1cccc(C#N)c1`, the half-life is > 2 h.

With `CCN1CCN(C(=O)c2nc3sccn3c2-c2cccc(C#N)c2)CC1`, the half-life is > 2 h.

Consider `Fc1cccc(-c2cnc(Nc3cncnc3)c3c2CCO3)c1`, for which the half-life amounted to 0.16 h.

Take `Cc1noc(-c2cn(C3CCN(C(=O)c4cccc(F)c4)C3)nn2)n1` (stereo not given): the half-life was > 2 h.

`O=C(NCCc1cnc[nH]1)c1ccc(-c2ncc3cnc(-c4cccc(F)c4)cn23)cc1` displayed a half-life of 0.248 h.

Regarding `N#Cc1ccc(CN2CCC(N3CCOC3=O)CC2)cc1`, the half-life was > 2 h.

With `N#Cc1ccnc(-c2nnc3ccc(NCc4cnccn4)nn23)c1`, the half-life is > 2 h.
